Values after ≈ are worked out from the molar mass of the structure shown. Read-outs that look alike come from different tables or passages of the source.
Experiments:
[1] = tested on: Mab bolletii CCUG 50184-T; experiment: MIC against Mab bolletii CCUG 50184-T; format: cell-based, Mycobacterium abscessus subsp. bolletii; details: for MIC50 Mab bolletii CCUG 50184-T: 3 days
[2] = tested on: Mab massiliense CCUG 48898-T; experiment: MIC against Mab massiliense CCUG 48898-T; format: cell-based, Mycobacterium abscessus subsp. massiliense; details: for MIC50 Mab massiliense CCUG 48898-T: 3 days
HepG2 = experiment: Cytotoxicity in HepG2 cells; format: cell-based, human; details: 48 h, growth suppressed by 50% vs untreated
Method: (§1) To each well in a 96-well plate, 50,000 cells in 100 μL media were seeded. Vero E6 and HepG2 cells were incubated overnight in DMEM for cell adherence at 37°C and 5% CO2. The media was removed from the wells and 100 μL solution made up of fresh DMEM media (99 μL) and the test compound (1 μL from a DMSO stock solution that was […] more concentrated than the final concentration in the well) was then added to each well. DMSO content of each well was consistently kept at 0.5 %v/v. Treated plates were incubated for 48 h (5% CO2, 37°C), after which 10 μL of Celltitre 96 Aqueous One Solution was added to each well, without removal of media, and incubated for a further 3 h. Subsequently, absorbance readings were taken at 490 nm on a Tecan GENios Microplate Reader.
(§2) Cell viability was determined from the expression: Cellviability(%)={[Absorbance(cells+cpd)−Absorbance(cpd)]/[Absorbance(cells+vc)−Absorbance(vc)]}×100% where Absorbance (cells + cpd) = absorbance of wells containing cells and test compound in vehicle (media +0.5% DMSO); Absorbance (cpd) = absorbance of wells containing test compound in vehicle without cells (compound control); Absorbance (cells + vc) = absorbance of wells containing cells in vehicle (vc) only (untreated cells); Absorbance (vc) = absorbance of wells containing vehicle without cells (vehicle control). The percentage viability readings were plotted against log(concentration) on GraphPad Prism (Version 7.0, San Diego, CA) to give a sigmoidal curve, from which IC50, defined as the concentration of the compound that reduced cell viability by 50%, was obtained. At least 3 separate determinations were carried out.

Mab abscessus ATCC 19977 = experiment: MIC against Mab abscessus ATCC 19977; format: cell-based, Mycobacterium abscessus subsp. abscessus; details: for MIC90: read-out: MIC90 Mab abscessus ATCC 19977; for MIC50 Mab abscessus ATCC 19977: 3 days
M. bovis BCG [3] = experiment: microbe, parasite or virus in culture; format: cell-based, Mycobacterium bovis BCG
clinical isolates of Mab = experiment: MIC50 against Mab clinical isolates; format: cell-based, Mycobacterium abscessus; details: range over isolates
Mtb H37Rv = experiment: MIC by broth microdilution against Mtb H37Rv; format: cell-based, Mycobacterium tuberculosis; details: incubation 5 days; for MIC50 Mtb H37Rv: first value of cell MIC50/MIC90; for MIC90: second value of cell MIC50/MIC90, read-out: MIC90 Mtb H37Rv
M. bovis BCG [4] = format: cell-based, Mycobacterium bovis BCG
Vero E6 = experiment: Cytotoxicity in Vero E6 cells; format: cell-based, African green monkey; details: 48 h, growth suppressed by 50% vs untreated
Method: as §1, §2

M. smegmatis mc2155 = experiment: MIC against M. smegmatis mc2155; format: cell-based, Mycobacterium smegmatis; details: Mycolicibacterium smegmatis
M. bovis BCG [5] = format: cell-based, Mycobacterium bovis BCG; remark: listed apart in the source
[6] = 7H9 medium (first value of cell)
[7] = CA-MHB medium (second value of cell)

Row | SMILES | MIC90 ([1]; 7H9 broth (first value)) [µM] | MIC50 Mab bolletii CCUG 50184-T [1, 6] | MIC90 ([1]; camH broth (second value)) [µM] | MIC90 ([2]; 7H9 broth (first value)) [µM] | MIC50 Mab massiliense CCUG 48898-T [2, 6] | MIC50 Mab massiliense CCUG 48898-T [2, 7] [µM] | MIC90 ([2]; camH broth (second value)) [µM] | IC50 (HepG2) [µM] | MIC90 (Mab abscessus ATCC 19977; 7H9 broth (first value)) [µM] | MIC50 Mab abscessus ATCC 19977 (Mab abscessus ATCC 19977; [6]) | MIC50 Mab abscessus ATCC 19977 (Mab abscessus ATCC 19977; [7]) | MIC90 (Mab abscessus ATCC 19977; camH broth (second value)) [µM] | MIC50 (M. bovis BCG [3]) [µM] | MIC50 BCG Without Glycerol (M. bovis BCG [3]) [µM] | MIC90 (Table S1) (M. bovis BCG [3]) [µM] | MIC50 Mtb H37Rv (Mtb H37Rv) | IC50 (Vero E6) [µM] | MIC90 (M. bovis BCG [3]) [µM] | MIC90 BCG (M. bovis BCG [3]) [mg/L] | other results
1 | COc1ccc(CCN(C)CCCC(C#N)(C/C=C(\C)CCC=C(C)C)c2ccc(OC)c(OC)c2)cc1OC (racemic) [PhA3] | 98 (≈ 53.8 µg/mL) | 47 µM (≈ 25.8 µg/mL) | 26 (≈ 14.3 µg/mL) | 96 (≈ 52.7 µg/mL) | 42 µM (≈ 23 µg/mL) | 10 (≈ 5.49 µg/mL) | 56 (≈ 30.7 µg/mL) | 32 | 104 (≈ 57.1 µg/mL) | 47 µM (≈ 25.8 µg/mL) | 17 µM (≈ 9.33 µg/mL) | 31 (≈ 17 µg/mL) | 11 (≈ 6.04 µg/mL) | 18 (≈ 9.88 µg/mL) | 22 (≈ 12.1 µg/mL) | 19 µM (≈ 10.4 µg/mL) | 27 |  |  | MIC50 Mab bolletii CCUG 50184-T [1, 7]: 13 µM (≈ 7.13 µg/mL); MIC50 BCG With Glycerol (M. bovis BCG [3]): 11 µM (≈ 6.04 µg/mL); MIC50 seven Mab clinical isolates (clinical isolates of Mab): 12 to 21 mg/L; MIC90 (Mtb H37Rv): 42 µM (≈ 23 µg/mL); CFUs above the detection limit (M. bovis BCG [4]): 10–100 times
2 | COc1ccc(CCN(C)CCCC(C#N)(CCCCCCCN=[N+]=[N-])c2ccc(OC)c(OC)c2)cc1OC (stereo not shown) [AZ-2] |  |  |  |  |  |  |  |  |  |  |  |  |  |  |  |  |  |  |  | MIC90 (M. bovis BCG [3]; Mycobacterium tuberculosis variant bovis BCG, BCG, M. bovis BCG, broth dilution, growth reduced by 90% vs untreated): 27 µM (≈ 14.9 µg/mL); MIC50 (M. bovis BCG [3]; Mycobacterium tuberculosis variant bovis BCG, BCG, read-out: M. bovis BCG MIC50 (Table S4)): 12 µM (≈ 6.62 µg/mL); MIC90 (M. bovis BCG [3]; Mycobacterium tuberculosis variant bovis BCG, BCG, read-out: M. bovis BCG MIC90 (Table S4)): 27 µM (≈ 14.9 µg/mL); MIC50 (M. smegmatis mc2155; MC2155, 24 h, incubation 1 day, read-out: M. smegmatis mc2155 MIC50 (Table S4)): 38 µM (≈ 21 µg/mL); MIC90 (M. smegmatis mc2155; MC2155, 24 h, incubation 1 day, read-out: M. smegmatis mc2155 MIC90 (Table S4)): 58 µM (≈ 32 µg/mL); MIC90 (M. smegmatis mc2155; MC2155, read-out: MIC90 M. smegmatis): 58 µM (≈ 32 µg/mL)
3 | COc1ccc(CCN(C)CCCC(C#N)(c2ccc(OC)c(OC)c2)C2CCCCCCC2)cc1OC (stereo not shown) [PhA4] |  |  |  |  |  |  |  |  |  |  |  |  | 23 (≈ 12 µg/mL) |  | 44 (≈ 23 µg/mL) |  |  | 44 (≈ 23 µg/mL) |  | 
4 | COc1ccc(CCN(C)CCCC(C#N)(Cc2ccc(Br)cc2)c2ccc(OC)c(OC)c2)cc1OC (stereo not shown) [PhA5] |  |  |  |  |  |  |  |  |  |  |  |  | 17 (≈ 9.89 µg/mL) |  | 43 (≈ 25 µg/mL) |  |  | 43 (≈ 25 µg/mL) |  | 
5 | COc1ccc(CCN(C)CCCC(C#N)(Cc2cccc(Cl)c2)c2ccc(OC)c(OC)c2)cc1OC (stereo not shown) [PhA6] |  |  |  |  |  |  |  |  |  |  |  |  | 17 (≈ 9.13 µg/mL) |  | 45 (≈ 24.2 µg/mL) |  |  | 45 (≈ 24.2 µg/mL) |  | 
6 | COc1ccc(CCN(C)CCCC(C#N)(c2ccc(Cl)c(Cl)c2)C(C)C)cc1OC (stereo not shown) [PhA7] |  |  |  |  |  |  |  |  |  |  |  |  | 27 (≈ 12.5 µg/mL) |  | 47 (≈ 21.8 µg/mL) |  |  | 47 (≈ 21.8 µg/mL) |  | 
7 | COc1ccc(C(C#N)(CCCN(C)CCc2ccc(Cl)c(Cl)c2)C(C)C)cc1OC (stereo not shown) [PhA8] |  |  |  |  |  |  |  |  |  |  |  |  | 26 (≈ 12 µg/mL) |  | 45 (≈ 20.9 µg/mL) |  |  | 45 (≈ 20.9 µg/mL) |  | 
8 | COc1ccc(CCN(C)CCCCCCCCCCC(C#N)(c2ccc(OC)c(OC)c2)C(C)C)cc1OC (stereo not shown) [PhA9] | 200 (≈ 111 µg/mL) | 103/– ^e uM |  | > 200 | 123/– ^e uM |  |  | 15 | 190 (≈ 105 µg/mL) | 74/– ^e uM |  |  | 11 (≈ 6.08 µg/mL) | 22 (≈ 12.2 µg/mL) | 22 (≈ 12.2 µg/mL) |  | 15 | 22 (≈ 12.2 µg/mL) | 12 (≈ 21.7 µM) | MBC99.9 (10^3-fold kill) (M. bovis BCG [5]): 2 x MIC90; MIC50 BCG With Glycerol (M. bovis BCG [3]): 11 µM (≈ 6.08 µg/mL)
9 | COc1ccc(CCN(C)CCCCCCCCCCCCC(C#N)(c2ccc(OC)c(OC)c2)C(C)C)cc1OC (stereo not shown) [PhA10] |  |  |  |  |  |  |  |  |  |  |  |  | 18 (≈ 10.5 µg/mL) |  | 32 (≈ 18.6 µg/mL) |  |  | 32 (≈ 18.6 µg/mL) |  | 
10 | COc1ccc(CCN(C)CCCC(C#N)(CCC2CCCCC2)c2ccc(Cl)c(Cl)c2)cc1OC (stereo not shown) [PhA11] | > 250 | > 250 µM | > 250 | > 250 | > 250 µM | 21 (≈ 11.2 µg/mL) | > 250 | 44 | > 250 | > 250 µM | 175 µM (≈ 93 µg/mL) | > 250 | 14 (≈ 7.44 µg/mL) | 46 (≈ 24.5 µg/mL) | 25 (≈ 13.3 µg/mL) | 19/40 μM | 57 | 25 (≈ 13.3 µg/mL) | 13 (≈ 24.5 µM) | MIC50 Mab bolletii CCUG 50184-T [1, 7]: 160 µM (≈ 85.1 µg/mL); MIC90 Mtb H37Rv (Mtb H37Rv): 19/40 μM
11 | CCCCCCCCC(C#N)(CCCN(C)CCc1ccc(OC)c(OC)c1)c1ccc(Cl)c(Cl)c1 (stereo not shown) [PhA12] | > 250 | > 250 µM | > 250 | > 250 | > 250 µM | 31 (≈ 16.5 µg/mL) | > 250 | 51 | > 250 | > 250 µM | 194 µM (≈ 104 µg/mL) | > 250 | 16 (≈ 8.54 µg/mL) | 35 (≈ 18.7 µg/mL) | 29 (≈ 15.5 µg/mL) | 23/46 μM | 69 | 29 (≈ 15.5 µg/mL) | 16 (≈ 30 µM) | MIC50 Mab bolletii CCUG 50184-T [1, 7]: 72 µM (≈ 38.4 µg/mL); MBC99.9 (10^3-fold kill) (M. bovis BCG [5]): 4 x MIC90; MIC90 Mtb H37Rv (Mtb H37Rv): 23/46 μM
12 | COc1ccc(CCN(C)CCCC(C#N)(CC=C(C)CCC=C(C)C)c2ccc(Cl)c(Cl)c2)cc1OC (stereo not shown) [PhA13] | > 250 |  | > 250 | > 250 | > 250 µM | 23 (≈ 12.8 µg/mL) | > 250 | 42 | > 250 | >250/250 uM | >250/250 uM | > 250 | 12 (≈ 6.69 µg/mL) | 30 (≈ 16.7 µg/mL) | 23 (≈ 12.8 µg/mL) | 21 µM (≈ 11.7 µg/mL) | 60 | 23 (≈ 12.8 µg/mL) | 13 (≈ 23.3 µM) | MIC50 BCG With Glycerol (M. bovis BCG [3]): 12 µM (≈ 6.69 µg/mL); MIC90 (Mtb H37Rv): 45 µM (≈ 25.1 µg/mL)
